The values that follow come from patent US8642788B2, “Activators of executioner procaspases 3, 6 and 7” (The Regents of the University of California, priority 2008, dated 2014).

Common to all, as to format: biochemical
One assay has as its target T1, procaspase-3 (Homo sapiens, UniProt P42574).
T1 construct: His6 (C); made in house; host or cells: E. coli BL21(DE3)RP, pET-23b
T1 sequence (P42574 1-277): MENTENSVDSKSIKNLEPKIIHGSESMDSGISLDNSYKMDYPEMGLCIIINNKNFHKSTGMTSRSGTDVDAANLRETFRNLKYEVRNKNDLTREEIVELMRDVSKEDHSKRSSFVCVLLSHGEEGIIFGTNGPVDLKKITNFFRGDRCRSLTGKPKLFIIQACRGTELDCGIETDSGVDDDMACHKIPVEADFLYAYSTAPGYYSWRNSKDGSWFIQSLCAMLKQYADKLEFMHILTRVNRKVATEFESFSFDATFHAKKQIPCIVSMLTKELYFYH
As to the kind of experiment: Executioner procaspase-3 activation assay (Ac-DEVD-AFC fluorogenic substrate). Conditions: incubation with compound for 5 h at 37° C.; 100 nM procaspase; read-out: Procaspase Activation 3. On the procedure:
The executioner procaspase-3, -6 and -7 activation assay protocol involves incubating the target protein at the physiologically-relevant concentration of 100 nM with activating compounds (ranging from 100 nM to 100 uM) in a total volume of 50 μL consisting of a reaction buffer of 50 mM HEPES, pH 7.4, 50 mM KCl, 1 mM DTT and 0.01% Triton-X100 (to reduce false positive hits due to compound aggregation). […] All components of the assay including protein, substrate and inhibitor are stored as frozen aliquots and thawed immediately prior to the assay.

In another assay the target is T2, procaspase-6 (Homo sapiens, UniProt P55212).
T2 sequence (P55212 1-293): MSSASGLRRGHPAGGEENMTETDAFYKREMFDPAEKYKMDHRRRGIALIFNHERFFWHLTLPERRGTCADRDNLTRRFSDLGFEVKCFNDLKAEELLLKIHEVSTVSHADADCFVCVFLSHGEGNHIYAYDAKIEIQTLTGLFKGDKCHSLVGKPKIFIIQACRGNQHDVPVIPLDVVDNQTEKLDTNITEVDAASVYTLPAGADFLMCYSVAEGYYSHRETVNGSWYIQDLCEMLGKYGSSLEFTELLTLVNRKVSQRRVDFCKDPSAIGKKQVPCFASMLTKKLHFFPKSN
As to the kind of experiment: Executioner procaspase-6 activation assay (Ac-VEID-AFC fluorogenic substrate). As to conditions: incubation with compound for 5 h at 37° C.; 100 nM procaspase. How it is done: (§1) The executioner procaspase-3, -6 and -7 activation assay protocol involves incubating the target protein at the physiologically-relevant concentration of 100 nM with activating compounds (ranging from 100 nM to 100 uM) in a total volume of 50 μL consisting of a reaction buffer of 50 mM HEPES, pH 7.4, 50 mM KCl, 1 mM DTT and 0.01% Triton-X100 (to reduce false positive hits due to compound aggregation). The procaspase/small molecule incubations are then agitated at 37° C. and assayed at various time points by addition of the fluorogenic peptide substrate 7-Amino-4-trifluoromethylcoumarin-DEVD (Ac-DEVD-AFC) (procaspases-3, -7) or Ac-VEID-AFC (procaspase-6) to a final concentration of 25 μM and analyzed by a kinetic 30 minute assay (excitation 365 nm and emission 495 nm). The final concentration of DMSO in each well is 3% and has no effect on enzyme stability or activity. […] All components of the assay including protein, substrate and inhibitor are stored as frozen aliquots and thawed immediately prior to the assay.
(§2) Tables 1 and 2. Procaspase activation as a result of incubation with compound for 5 h at 37° C. (+++ EC50˜0.5-10 μM; ++ EC50˜10-50 μM; + EC50˜50-200 μM; -no activation observed; ND not determined).

In another assay the target is T3, procaspase-7 (Homo sapiens, UniProt P55210).
T3 construct: His6 (C); made in house; host or cells: E. coli BL21(DE3)RP, pET-21b
T3 sequence (P55210 1-303): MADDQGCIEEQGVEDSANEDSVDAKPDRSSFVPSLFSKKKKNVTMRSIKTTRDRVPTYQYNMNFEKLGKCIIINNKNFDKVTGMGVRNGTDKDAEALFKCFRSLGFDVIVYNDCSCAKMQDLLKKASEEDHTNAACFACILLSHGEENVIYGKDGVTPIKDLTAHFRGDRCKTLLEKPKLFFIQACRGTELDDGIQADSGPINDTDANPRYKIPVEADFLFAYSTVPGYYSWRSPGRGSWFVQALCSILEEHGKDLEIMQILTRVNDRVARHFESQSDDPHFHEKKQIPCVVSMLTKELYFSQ
The assay is described as follows: Executioner procaspase-7 activation assay (Ac-DEVD-AFC fluorogenic substrate). Conditions: incubation with compound for 5 h at 37° C.; 100 nM procaspase. How it is done:
as §1, §2

SMILES strings stand for the structures.

Take `COc1ccc(OC)c(-c2cccc(NC(=O)c3cc4cccc(OC)c4oc3=O)c2)c1` [compound 57, 8-Methoxy-2-oxo-2H-chromene-3-carboxylic acid (2′,5′-dimethoxy-biphenyl-3-yl)-amide]: the EC50 on procaspase-3, on procaspase-6 and on procaspase-7 was greater than 100 µM in each case.
Turning to `COc1ccc(OC)c(-c2cccc(NC(=O)c3cc4cccc(OC(F)(F)F)c4oc3=O)c2)c1` [compound 58, 8-Trifluoromethoxy-2-oxo-2H-chromene-3-carboxylic acid (2′,5′-dimethoxy-biphenyl-3-yl)-amide], the EC50 at procaspase-3, on procaspase-6 and at procaspase-7 was greater than 100 µM each time.
Turning to `O=C(Nc1cccc(-c2ccc(Oc3ccccc3)cc2)c1)c1cc2cccc(O)c2oc1=O` [compound 59, 8-Hydroxy-2-oxo-2H-chromene-3-carboxylic acid (4′-phenoxy-biphenyl-3-yl)-amide], the EC50 on procaspase-3, on procaspase-6 and at procaspase-7 was greater than 100 µM throughout.
On to `COc1cccc2cc(C(=O)Nc3cccc(-c4ccc(Oc5ccccc5)cc4)c3)c(=O)oc12` [compound 60, 8-Methoxy-2-oxo-2H-chromene-3-carboxylic acid (4′-phenoxy-biphenyl-3-yl)-amide], for which the EC50 at procaspase-3, at procaspase-6 and on procaspase-7 was greater than 100 µM in each case.
With `O=C(Nc1cccc(-c2ccc(Oc3ccccc3)cc2)c1)c1cc2cccc(OC(F)(F)F)c2oc1=O` [compound 61, 8-Trifluoromethoxy-2-oxo-2H-chromene-3-carboxylic acid (4′-phenoxy-biphenyl-3-yl)-amide], the EC50 on procaspase-3, at procaspase-6 and at procaspase-7 was greater than 100 µM in each case.
As to `O=C(Nc1cccc(-c2ccc3c(c2)OCO3)c1)c1cc2cccc(O)c2oc1=O` [compound 62, 8-Hydroxy-2-oxo-2H-chromene-3-carboxylic acid (3-Benzo[1,3]dioxol-5-yl-phenyl)-amide], the EC50 was greater than 100 µM at procaspase-3, greater than 100 µM on procaspase-6 and 10 to 50 µM at procaspase-7.
As for `COc1cccc2cc(C(=O)Nc3cccc(-c4ccc5c(c4)OCO5)c3)c(=O)oc12` [compound 63, 8-Methoxy-2-oxo-2H-chromene-3-carboxylic acid (3-Benzo[1,3]dioxol-5-yl-phenyl)-amide], the EC50 on procaspase-3, on procaspase-6 and at procaspase-7 was greater than 100 µM throughout.
`O=C(Nc1cccc(-c2ccc3c(c2)OCO3)c1)c1cc2cccc(OC(F)(F)F)c2oc1=O` [compound 64, 8-Trifluoromethoxy-2-oxo-2H-chromene-3-carboxylic acid (3-Benzo[1,3]dioxol-5-yl-phenyl)-amide]: the EC50 at procaspase-3, on procaspase-6 and on procaspase-7 was greater than 100 µM throughout.
Turning to `CCOc1ccc(-c2cccc(NC(=O)c3cc4cccc(O)c4oc3=O)c2)cc1C` [compound 65, 8-Hydroxy-2-oxo-2H-chromene-3-carboxylic acid (4′-ethoxy-3′-methyl-biphenyl-3-yl)-amide], the EC50 at procaspase-3, at procaspase-6 and on procaspase-7 was greater than 100 µM throughout.
For the molecule `CCOc1ccc(-c2cccc(NC(=O)c3cc4cccc(OC)c4oc3=O)c2)cc1C` [compound 66, 8-Methoxy-2-oxo-2H-chromene-3-carboxylic acid (4′-ethoxy-3′-methyl-biphenyl-3-yl)-amide], the EC50 on procaspase-3, on procaspase-6 and at procaspase-7 was greater than 100 µM throughout.
For the molecule `CCOc1ccc(-c2cccc(NC(=O)c3cc4cccc(OC(F)(F)F)c4oc3=O)c2)cc1C` [compound 67, 8-Trifluoromethoxy-2-oxo-2H-chromene-3-carboxylic acid (4′-ethoxy-3′-methyl-biphenyl-3-yl)-amide], the EC50 at procaspase-3, at procaspase-6 and at procaspase-7 was greater than 100 µM in each case.
Take `CCOc1ccc(-c2cccc(NC(=O)c3cc4cccc(O)c4oc3=O)c2)cc1` [compound 68, 8-Hydroxy-2-oxo-2H-chromene-3-carboxylic acid (4′-Ethoxy-biphenyl-3-yl)-amide]: the EC50 at procaspase-3, on procaspase-6 and at procaspase-7 was greater than 100 µM throughout.
Regarding `CCOc1ccc(-c2cccc(NC(=O)c3cc4cccc(OC)c4oc3=O)c2)cc1` [compound 69, 8-Methoxy-2-oxo-2H-chromene-3-carboxylic acid (4′-ethoxy-biphenyl-3-yl)-amide], the EC50 at procaspase-3, on procaspase-6 and on procaspase-7 was greater than 100 µM throughout.
Turning to `CCOc1ccc(-c2cccc(NC(=O)c3cc4cccc(OC(F)(F)F)c4oc3=O)c2)cc1` [compound 70, 8-Trifluoromethoxy-2-oxo-2H-chromene-3-carboxylic acid (4′-ethoxy-biphenyl-3-yl)-amide], the EC50 at procaspase-3, at procaspase-6 and on procaspase-7 was greater than 100 µM in each case.
As for `O=C(Nc1cccc(-c2ccccc2OC(F)(F)F)c1)c1cc2cccc(O)c2oc1=O` [compound 71, 8-Hydroxy-2-oxo-2H-chromene-3-carboxylic acid (2′-trifluoromethoxy-biphenyl-3-yl)-amide], the EC50 at procaspase-3, on procaspase-6 and on procaspase-7 was greater than 100 µM each time.
On to `COc1cccc2cc(C(=O)Nc3cccc(-c4ccccc4OC(F)(F)F)c3)c(=O)oc12` [compound 72, 8-Methoxy-2-oxo-2H-chromene-3-carboxylic acid (2′-trifluoromethoxy-biphenyl-3-yl)-amide], for which the EC50 on procaspase-3, on procaspase-6 and on procaspase-7 was greater than 100 µM each time.
Take `O=C(Nc1cccc(-c2ccccc2OC(F)(F)F)c1)c1cc2cccc(OC(F)(F)F)c2oc1=O` [compound 73, 8-Trifluoromethoxy-2-oxo-2H-chromene-3-carboxylic acid (2′-trifluoromethoxy-biphenyl-3-yl)-amide]: the EC50 at procaspase-3, on procaspase-6 and on procaspase-7 was greater than 100 µM in each case.
With `O=C(Nc1cccc(-c2ccc3c(c2)CCO3)c1)c1cc2cccc(O)c2oc1=O` [compound 74, 8-Hydroxy-2-oxo-2H-chromene-3-carboxylic acid [3-(2,3-Dihydro-benzofuran-5-yl)-phenyl]-amide], the results for the EC50 on procaspase-3, at procaspase-6 and on procaspase-7 were greater than 100 µM, greater than 100 µM and 10 to 50 µM, respectively.
For `COc1cccc2cc(C(=O)Nc3cccc(-c4ccc5c(c4)CCO5)c3)c(=O)oc12` [compound 75, 8-Methoxy-2-oxo-2H-chromene-3-carboxylic acid [3-(2,3-dihydro-benzofuran-5-yl)-phenyl]-amide], the EC50 on procaspase-3, at procaspase-6 and at procaspase-7 was greater than 100 µM in each case.
Regarding `O=C(Nc1cccc(-c2ccc3c(c2)CCO3)c1)c1cc2cccc(OC(F)(F)F)c2oc1=O` [compound 76, 8-Trifluoromethoxy-2-oxo-2H-chromene-3-carboxylic acid [3-(2,3-dihydro-benzofuran-5-yl)-phenyl]-amide], the EC50 at procaspase-3, on procaspase-6 and at procaspase-7 was greater than 100 µM each time.
